Source: publication PMC12409883 (Journal of Medicinal Chemistry, 2025)

Tests used:
RPE65 = RPE65 (Bos taurus, UniProt Q28175); assay: In vitro RPE65 activity assay; settings: for IC50: IC50 toward RPE65, bovine RPE microsomes
[1] = test system: visual chromophore regeneration in BALB/cJ mice; assay: Extent and duration of effects on visual chromophore recovery after photobleach; settings: 10 mg/kg single IP, photobleach 30 min after dose, 2 h dark recovery
[2] = Shelf life of ester-based VCMs; assay type: physicochemical; settings: Figure S1
porcine liver esterase = assay: In vitro esterase susceptibility assay; settings: for initial rate of VCM loss: 37 °C, followed for 60 min
BALBc/J mice = assay: In vivo scotopic ERG 2 h after photobleach, oral gavage dosing; set-up: species or system mouse; settings: 10 mg/kg oral gavage, photobleach after 30 min, 2 h in the dark
BALB/cJ mice [3] = assay: Light-induced retinal damage in BALB/cJ mice: SLO and OCT imaging; assay type: in vivo, mouse
BALB/cJ mice [4] = assay: Light-induced retinal damage in BALB/cJ mice: histology, ONL nuclei counts; settings: 10 mg/kg single IP, 15,000 lx for 8 h, p < 0.0001
Abca4–/–Rdh8–/– mice [5] = assay: Photic retinal damage in Abca4–/–Rdh8–/– mice; assay type: in vivo, mouse
Abca4–/–Rdh8–/– mice [6] = assay: Photic retinal damage in Abca4–/–Rdh8–/– mice: scotopic; assay type: in vivo, mouse; settings: 1 week after light damage
Abca4–/–Rdh8–/– mice [7] = assay: Photic retinal damage in Abca4–/–Rdh8–/– mice: photopic ERG; assay type: in vivo, mouse; settings: IP and oral administration, 1 week after light damage
[8] = 10 mg/kg single IP, 15,000 lx for 8 h, assessed after 7 days

Sequence of RPE65 (Q28175 whole entry): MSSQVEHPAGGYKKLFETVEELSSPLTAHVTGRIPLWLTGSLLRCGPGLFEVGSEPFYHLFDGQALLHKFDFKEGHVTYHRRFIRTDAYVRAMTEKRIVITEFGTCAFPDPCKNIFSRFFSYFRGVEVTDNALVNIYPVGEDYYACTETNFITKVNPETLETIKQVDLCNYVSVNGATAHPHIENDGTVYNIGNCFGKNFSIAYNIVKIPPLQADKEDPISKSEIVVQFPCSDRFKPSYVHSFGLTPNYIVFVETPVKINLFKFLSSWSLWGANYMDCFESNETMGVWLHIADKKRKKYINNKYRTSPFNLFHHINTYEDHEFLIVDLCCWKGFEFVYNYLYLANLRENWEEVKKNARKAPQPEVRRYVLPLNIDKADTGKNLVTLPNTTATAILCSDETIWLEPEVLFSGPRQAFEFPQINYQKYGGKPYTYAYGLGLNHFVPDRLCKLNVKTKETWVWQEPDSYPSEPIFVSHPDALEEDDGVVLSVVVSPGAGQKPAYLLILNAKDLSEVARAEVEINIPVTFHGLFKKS

| RPE65 inhibition in vitro (RPE65; bovine RPE microsomes) | initial rate of VCM loss (porcine liver esterase) [% compound/min] | IC50 (RPE65) [nM] | slower initial rate of hydrolysis compared with compound 5 (porcine liver esterase) [fold] | Compound | ocular retinoid pattern (atREs and 11cRAL) after photobleach [1] | stability to nonenzymatic aminolysis [2] | scotopic ERG a-wave after oral dosing (BALBc/J mice) | scotopic ERG b-wave after oral dosing (BALBc/J mice) | OCT: ONL thickness (BALB/cJ mice [3]; [8]) | SLO retinal autofluorescent puncta (BALB/cJ mice [3]; [8]) | efficacy of a single systemic administration in the prevention of photic retinal damage (BALB/cJ mice [3]; 10 mg/kg single IP, albino BALB/cJ mice) | Spider plot of ONL thickness from H&E sections, ANOVA (BALB/cJ mice [4]) | OCT: ONL, oral (Abca4–/–Rdh8–/– mice [5]; oral 10, 20, 50 mg/kg, 10,000 lx for 30 min, assessed after 1 week) | SLO autofluorescent signals, oral (Abca4–/–Rdh8–/– mice [5]; oral 10, 20 and 50 mg/kg, 10,000 lx for 30 min, assessed after 1 week) | oral dose from which the effect on ONL thickness was significant (Abca4–/–Rdh8–/– mice [5]; oral administration, OCT ONL thickness) [mg/kg] | OCT: ONL, IP (Abca4–/–Rdh8–/– mice [5]; single IP dose, 10,000 lx for 30 min, assessed after 1 week) | rod ERG responses, IP (Abca4–/–Rdh8–/– mice [6]; IP administration) | rod ERG b-wave amplitudes, oral (Abca4–/–Rdh8–/– mice [6]; oral 10, 20, 50 mg/kg) | S-cone and M-cone b-wave amplitudes (Abca4–/–Rdh8–/– mice [7]) |
| --- | --- | --- | --- | --- | --- | --- | --- | --- | --- | --- | --- | --- | --- | --- | --- | --- | --- | --- | --- |
| did not significantly inhibit RPE65 | – | – | – | NCCC(O)c1cccc(O)c1 (stereo not shown) [Compound 4, 3-(3-Amino-1-hydroxypropyl)phenol] | led to the same pattern as vehicle treatment | – | – | – | – | – | – | – | – | – | – | – | – | – | – |
| – | 5.611 | 164 ± 27 | – | NCCC(O)c1cccc(OC(=O)C2CCCCC2)c1.O=CO (stereo not shown) [Compound 5, 3-(3-Amino-1-hydroxypropyl)phenyl cyclohexanecarboxylate formate] | led to the same pattern as vehicle treatment | substantially less stable compared to 6 and 7 | – | – | – | – | – | – | – | – | – | – | – | – | – |
| – | 1.512 | 69 ± 15 | ~4 | CCC(CC)C(=O)Oc1cccc(C(O)CCN)c1.O=CO (stereo not shown) [Compound 6, 3-(3-Amino-1-hydroxypropyl)phenyl 2-ethylbutanoate formate] | reproduced the retinoid pattern observed after emixustat treatment | – | suppressed significantly the scotopic ERG a-wave | only 7 suppressed also the b-wave amplitude | preserved the thickness of the ONL | rare autofluorescent puncta | equal to that of emixustat | significant effect | – | – | – | – | – | – | – |
| – | 0.440 | 102 ± 12 | ~13 | CCCC(CCC)C(=O)Oc1cccc(C(O)CCN)c1.O=CO (stereo not shown) [Compound 7, 3-(3-Amino-1-hydroxypropyl)phenyl 2-propylpentanoate formate] | reproduced the retinoid pattern observed after emixustat treatment | – | suppressed significantly the scotopic ERG a-wave | – | – | – | – | – | dose-dependent preservation of the ONL layer | did not afford complete protection | ≥ 20 | the ONL remained intact | had a significant effect in maintaining rod function | dose-dependent preservation of rod ERG b-wave amplitudes | A similar trend was observed |
